In patent US5621102A, “Process for preparing enantiomerically pure xanthine derivatives” (Cell Therapeutics, Inc., priority 1995, dated 1997):

Tests used:
smooth muscle cells = test: smooth muscle proliferation stimulated by PDGF and IL-1; assay type: cell-based; settings: drug added two hours prior to activation
Excerpt: CT1501R and PTX were separately added to the cells two hours prior to activation with PDGF and IL-1.

[1] = test system: PBMC (peripheral blood mononuclear cells); test: two-way mixed lymphocyte reaction (MLR); assay type: cell-based, human
Excerpt: Various in vitro assays can be used to measure effects of the inventive compounds to module immune activity and have antitumor activity using a variety of cellular types. For example, a mixed lymphocyte reaction (MLR) provides a valuable screening tool to determine biological activity of each inventive compound. In the MLR, PBMCs (peripheral blood mononuclear cells) are obtained by drawing whole blood from healthy volunteers in a heparinized container and diluted with an equal volume of hanks balanced salt solution (HBSS). This mixture is layered on a sucrose density gradient, such as a Ficoll-Hypaque® gradient (specific gravity 1.08), and centrifuged at 1000×g for 25 minutes at room temperature or cooler. PBMC are obtained from a band at a plasma-Ficoll interface, separated and washed at least twice in a saline solution, such as HBSS. Contaminating red cells are lysed, such as by ACK lysis for 10 min at 37° C., and the PBMCs are washed twice in HBSS. The pellet of purified PBMCs is resuspended in complete medium, such as RPMI 1640 plus 20% human inactivated serum. Proliferative response of PBMC to allogeneic stimulation is determined in a two-way MLR performed in a 96-well microliter plate. […] At the conclusion of the incubation tritiated thymidine is added (for example, 1 μCi/well of 40 to 60 Ci/mmole) and proliferation determined by liquid scintillation counting. […]

[2] = test system: hair follicles of nu/nu mice; test: nude mouse hair studies, topical application; assay type: in vivo; settings: second experiment; 60% ETOH, 10% water, 30% PEG base, twice daily, 34 days
Excerpt: This example illustrates nude mouse hair studies involving topical application of CT1501R. Six to eight week old, female, nu/nu mice from Charles River Laboratories were housed at Biosupport Research Support Services (Seattle, Wash.) in autoclaved micro isolator units with hyperchlorinated autoclaved water, irradiated rodent chow and kept under a laminar flow hood. Caging was changed weekly, and water was changed twice weekly. The mice were acclimated for 5 days before beginning each study.
The first topical formulation was prepared by adding CT1501R to a heated hydrophilic ointment (USP) at a 1% concentration, and allowed to solidify.
Nude mice were painted twice daily for 16 days with the first topical formulation of CT1501R on the left flank and another compound in the same base on the right flank with sterile applicators. Mice were handled under the laminar flow hood with applicator wearing face mask and sterile gloves. After 16 days, one mouse was sacrificed by cervical dislocation and skin biopsies were taken of the treated areas of the shoulder/flank and from the non-treated area of the dorsal pelvis (rump). Specimens were placed in 10% buffered formalin solution. Biopsies were sent to a veterinary dermopathologist for histopathology. Six weeks following treatment, a second mouse was euthanatized and biopsied the same as the first. Samples were sent for histopathology.
In a second experiment, topical application of CT1501R was performed along with a commercial topical minoxidil preparation (Rogaine®, Upjohn) that is approved for a hair growth indication. Five to six week old, female, nu/nu mice from Bantin and Kingman Universal were housed at Biosupport Research Support Services (Seattle, Wash.) in autoclaved micro isolator units with hyper chlorinated autoclaved water, irradiated rodent chow and kept under a laminar flow hood. Caging was changed weekly, and water was changed twice weekly. Mice were acclimated for 7 days before beginning study, […]

SMILES	inhibition of smooth muscle cell proliferation (smooth muscle cells)	proliferative response of PBMC to allogeneic stimulation [1]	hair follicles, subjective histopathological examination [2]
CC(=O)CCCCn1c(=O)c2c(ncn2C)n(C)c1=O [PTX, 1-(5-oxohexyl)-3,7-dimethylxanthine, reference compound]	inhibited smooth muscle cell proliferation at the higher doses tested	showed dose-response activity	
Nc1cc(N2CCCCC2)nc(N)[n+]1[O-] [minoxidil, reference compound]			fair response to treatment
